Measurements as given in patent publication US5550165A, “Pharmaceutical compositions for the treatment of hereditary tyosinemia type I” (Zeneca Limited, priority 1991, dated 1996).

What was measured:
[1] = tested on: tyrosinaemia (type I) patients; test: Therapeutic evaluation in patients with tyrosinaemia (type I); format: in vivo, human
[2] = tested on: tyrosinaemia (type I) patients; test: as above; format: in vivo, human; remark: listed apart in the source
Description: Patients with an advanced form of the disease will be given the test composition (generally about 0.2-2.0 mg of active ingredient per kg body weight) orally. A blood sample will be taken daily during the first week and then less frequently at the discretion of the physician. Urine specimens will normally be collected daily. The indicators outlined below will be used to monitor the response to the test composition. The treatment will be maintained for up to 12 months if a clinically and biochemically satisfactory response is observed. If not, the dose of active ingredient administered will be increased stepwise to a maximum of about 2 mg/kg per day. Should any adverse indication occur, based on the biochemical monitoring or clinical assessment dosing will be stopped immediately.
The patients will be placed on a tyrosine-restricted diet with the aim of keeping plasma tyrosine concentrations below 500 μmol/L. A large increase in the tyrosine concentration in plasma is not expected to occur, but levels will be monitored throughout the dosing. Changes in the excretion of the biochemical markers mentioned below, such as succinylacetoacetate, succinylacetone and 5-aminolevulinic acid will be monitored, as will the effect on porphobilinogen synthase and α-fetoprotein concentration.
Tyrosine and Methionine--these amino acids will be determined in plasma by a standard technique using an amino-acid analyser.
Succinylacetoacetate and Succinylacetone--these compounds will be determined in urine by gas chromatography--mass spectrometry. Succinylacetone in plasma will be determined by measuring the inhibition of porphobilinogen synthase using a conventional assay.
5-Aminolevulinic acid--this will be determined in urine by a conventional colorimetric assay.
α-Fetoprotein--this will be determined in plasma by a conventional radioimmunoassay technique.
Porphobilinogen synthase--this will be determined in erythrocytes using a conventional colorimetric assay.
A patient was admitted to hospital after problems with slight nose bleedings and the parents noting swelling of the abdomen. Metabolic screening in hospital diagnosed tyrosinaemia (type I) based on the abnormal excretion of succinylacetone, succinylacetoacetate and 5-aminolevulinic acid in urine and a low activity of porphobilinogen synthase in erythrocytes. […] This was increased to 0.16 mg/kg b.w. after four days, and then to about 0.4 mg/kg by the end of the first 2 months, the dose being divided into two portions for morning and afternoon administration. The dose was then increased to about 0.6 mg/kg after a further 5 months.

[3] = 90 day oral toxicity in rhesus monkeys; format: in vivo; settings: over 90 days, daily oral dose of 10 mg/kg
[4] = Patient 2, capsule formulation 0.2 mg/kg b.w.
[5] = Patient 3, capsule formulation 0.2 mg/kg b.w., after 5 months 0.6 mg/kg b.w.
[6] = Patient 4, capsule formulation 0.2 mg/kg b.w., after 5 months 0.6 mg/kg b.w.
[7] = Patient 1, capsule formulation, 0.08 increased to about 0.6 mg/kg b.w.

O=C1CCCC(=O)C1C(=O)c1ccc(C(F)(F)F)cc1[N+](=O)[O-] [the Compound, 2-(2-nitro-4-trifluoromethylbenzoyl)-1,3-cyclohexanedione]
serum α-fetoprotein concentration after dosing ([1]; Patient 1, decreased from 7,200 μg/L during dosing): 96 µg/L
excretion of succinylacetone and succinylacetoacetate after treatment ([1]; Patient 1, urine, immediate decrease from 50 mmol/mol of creatinine): < 1 mmol/mol of creatinine
methionine concentration in plasma ([1]; Patient 1, very high initially, after start of treatment): dropped to normal levels very rapidly
clinical position of the patient ([1]; Patient 2, 0.2 mg/kg b.w.): improved
serum levels of α-fetoprotein after treatment ([1]; Patient 2, 0.2 mg/kg b.w., decreased from ca. 900 μg/L): 40 µg/L
serum levels of succinylacetone [1, 4]: decreased
urinary levels of 5-aminolevulinic acid [1, 4]: decreased
urinary levels of succinylacetone [1, 4]: decreased
porphobilinogen synthase activity ([1]; Patient 2, capsule formulation 0.2 mg/kg b.w., initial 3 month dosing period): increased to normal levels
clinical position of the patient ([1]; Patient 3, 0.2 then 0.6 mg/kg b.w.): improved
serum levels of α-fetoprotein after treatment ([1]; Patient 3, 0.2 then 0.6 mg/kg b.w., fell from ca. 900 μg/L): 11 µg/L
plasma levels of succinylacetone [1, 5]: substantially lowered
urinary levels of 5-aminolevulinic acid [1, 5]: substantially lowered
clinical position of the patient ([1]; Patient 4, 0.2 then 0.6 mg/kg b.w.): improved
serum levels of α-fetoprotein after treatment ([1]; Patient 4, 0.2 then 0.6 mg/kg b.w., fell from ca. 2000 μg/L): 48 µg/L
plasma levels of succinylacetone [1, 6]: substantially lowered
urinary levels of 5-aminolevulinic acid [1, 6]: substantially lowered
urinary levels of succinylacetone [1, 6]: substantially lowered
excretion of 5-aminolevulinic acid [2, 7]: concomitant decrease
porphobilinogen synthase activity in erythrocytes [2, 7]: immediate increase
overall clinical condition of the patient ([2]; Patient 1, during the treatment period): improved markedly
plasma succinylacetone levels ([2]; Patient 1, immediate decrease, after about 30 days): to the limit of detection
decrease of concentration of amino acids in urine ([2]; Patient 1, very high before treatment, after treatment): 5-10 times
urinary levels of succinylacetone [2, 5]: substantially lowered
toxic or other adverse effects [3]: no significant toxic or other adverse effects
